Source: patent publication US20100273733A1, “HIV Treatment” (priority 2009, published 2010)

How the values were obtained:
HIV = HIV replication in JC53 cells, viral core antigen P24 antibody kit; assay type: cell-based; conditions: Dex alone from greater or equal to 0.1 μmolar, effect topped out
Procedure: In another experiment, JC53 cells (HeLa cancer cells engineered to express CD4 and CCR5 receptors for HIV) are treated with HIV and the relevant agents to determine if DEAE inhibit HIV replication, using commercial antibody kit for viral core antigen P24 to assess level of virus production. […] The virus appears able to propagate and infect other cells. Dex alone indicated a 50% HIV activity inhibition from greater or equal to 0.1 μmolar. […] Similarly, 0.02 μmolar AZT alone has 40% inhibition of HIV replication.

[1] = system: Jurkat (T-lymphocyte) cells; experiment: Selective toxicity, cell viability by MTT or XTT, uninfected control cells; assay type: cell-based
Procedure: For purposes of the following experiments and unless otherwise specified, the standard DEAE/Dex concentration is about 6.0 to about 6.9 molar DEAE/0.1 molar Dex.
Selective Toxicity. Wells with 10^6 Jurkat (T-lymphocyte) cells were infected with HIV at Multiplicities of Infection (MOI—the number of viral particles vs. infectable cells) of 0.1 or 0.01 for 4 hours. The cells are treated with Dex, DEAE, DEAE/DEX or control for 48 hours. Cell viability was assayed by MTT or XTT method. In the control (uninfected) cells, standard concentrations of Dex, DEAE and DEAE/Dex are non-toxic (within standard deviation).

C[C@@H]1C[C@H]2[C@@H]3CCC4=CC(=O)C=C[C@]4(C)[C@@]3(F)[C@@H](O)C[C@]2(C)[C@@]1(O)C(=O)CO [Dex, dexamethasone]
HIV activity inhibition (HIV): 50% | toxicity (cell viability) [1]: non-toxic
